Values quoted from earlier work as cited in patent US20120148649A1, “COMPOSITION FOR RESTORATION OF AGE RELATED TISSUE IN THE FACE OR SELECTED AREAS OF THE BODY” (priority 2004, published 2012).

Assays:
tumor growth = conditions: deuterium concentration from 0.1 to 110 ppm; animal model studies
cancer patients = conditions: human clinical trials, hundreds of cancer patients

**Q.** For deuterium depleted water, which “effect on tumor growth” value (tumor growth) is on record?
**A.** The value was “inhibits tumor growth”.

**Q.** What about the “effect on life span of cancer patients” value (cancer patients) of the same substance?
**A.** The value was “extended life span”.
